Data as given in ChEMBL document CHEMBL4431301, “The Medicinal Chemistry of Dengue Virus” (J Med Chem, 2016).
Where a SMILES comes first, the peptide text is derived from it.

Key:
[1] = Selectivity index, ratio of CC50 for human A549 cells to EC50 for Dengue virus 2 infected in human A549 cells; assay type: toxicity, cell-based; settings: read-out: Ratio CC50/EC50
[2] = system: dengue virus type 2; experiment: Antiviral activity against Dengue virus 2 infected in human A549 cells assessed as decrease in viral envelope protein production after 48 hrs by CFI assay; assay type: functional, organism-based; settings: A549, 48 h
[3] = target: T1, Genome polyprotein (dengue virus type 2, UniProt P29990); experiment: Inhibition of Dengue virus 2 Taiwanese PL046 NS2B-NS3 protease using Ac-TTSTRR-pNA as substrate preincubated for 10 mins followed by addition of substrate measured after 2 hrs
[4] = target: T1, Genome polyprotein; experiment: Inhibition of Dengue virus 2 NS2B-NS3 protease expressed in Escherichia coli BL21(DE3) using Boc-Gly-Arg-Arg-7-amino-4-methylcoumarin as substrate after 10 mins by fluorescence assay
[5] = target: T1, Genome polyprotein; experiment: Inhibition of Dengue virus 2 GFP/DsRed fused NS2B-NS3 protease co-transfected in HEK293T cells by Western blot analysis; assay type: cell-based
[6] = system: dengue virus type 2; experiment: Antiviral activity against Dengue virus 2 infected in african green monkey Vero cells preincubated with cells followed by viral infection measured after 4 days by immunofluorescence staining based fluorescence microscope; assay type: functional, organism-based
[7] = system: dengue virus type 4; experiment: Antiviral activity against Dengue virus 4 P11-08 infected in african green monkey Vero cells assessed as reduction in virus replication after 72 hrs by foci-forming assay; assay type: functional, organism-based; settings: P11-08, Vero
[8] = system: dengue virus type 3; experiment: Antiviral activity against Dengue virus 3 P12-08 infected in african green monkey Vero cells assessed as reduction in virus replication after 72 hrs by foci-forming assay; assay type: functional, organism-based; settings: P12-08, Vero
[9] = system: dengue virus type 1; experiment: Antiviral activity against Dengue virus 1 P03-08 infected in african green monkey Vero cells assessed as reduction in virus replication after 72 hrs by foci-forming assay; assay type: functional, organism-based; settings: P03-08, Vero
[10] = system: dengue virus type 2; experiment: Antiviral activity against Dengue virus 2 NGC infected in african green monkey Vero cells assessed as reduction in virus replication after 72 hrs by foci-forming assay; assay type: functional, organism-based
[11] = Cytotoxicity against african green monkey Vero cells after 72 hrs by MTT assay; assay type: cell-based; settings: chlorocebus sabaeus
[12] = system: dengue virus type 4; experiment: Antiviral activity against Dengue virus 4 infected in monkey LLC-MK2 cells assessed as reduction in viral infection at 2 to 5 uM by focus forming unit assay; assay type: functional; set-up: scale not given: the % may be the effect or the level left
[13] = system: dengue virus type 1; experiment: Antiviral activity against Dengue virus 1 infected in monkey LLC-MK2 cells assessed as reduction in viral infection at 2 to 5 uM by focus forming unit assay; assay type: functional; set-up: scale not given: the % may be the effect or the level left
[14] = system: dengue virus type 3; experiment: Antiviral activity against Dengue virus 3 infected in monkey LLC-MK2 cells assessed as reduction in viral infection at 2 to 5 uM by focus forming unit assay; assay type: functional; set-up: scale not given: the % may be the effect or the level left
[15] = system: dengue virus type 2; experiment: Antiviral activity against Dengue virus 2 infected in monkey LLC-MK2 cells assessed as reduction in viral infection at 2 to 5 uM by focus forming unit assay; assay type: functional; set-up: scale not given: the % may be the effect or the level left
[16] = system: dengue virus type 2; experiment: Antiviral activity against Dengue virus 2 NGC infected in human A549 cells assessed as reduction in viral envelope protein production after 48 hrs by CFI assay; assay type: functional, organism-based; settings: A549, 48 h
[17] = system: dengue virus type 1; experiment: Antiviral activity against Dengue virus 1 West Pacific infected in BHK21 cells assessed as reduction in viral titer after 48 hrs by plaque assay; assay type: functional, organism-based; settings: BHK-21, 48 h
[18] = system: dengue virus type 4; experiment: Antiviral activity against Dengue virus 4 H241 infected in BHK21 cells assessed as reduction in viral titer after 48 hrs by plaque assay; assay type: functional, organism-based; settings: H241, BHK-21, 48 h
[19] = system: dengue virus type 2; experiment: Antiviral activity against Dengue virus 2 NGC infected in BHK21 cells assessed as reduction in viral titer after 48 hrs by plaque assay; assay type: functional, organism-based; settings: BHK-21, 48 h
[20] = system: dengue virus type 3; experiment: Antiviral activity against Dengue virus 3 H87 infected in BHK21 cells assessed as reduction in viral titer after 48 hrs by plaque assay; assay type: functional, organism-based; settings: H87, BHK-21, 48 h
[21] = Cytotoxicity against BHK21 cells assessed as cell viability after 3 days by CellTiter Glo assay; assay type: cell-based, Mesocricetus auratus, BHK-21; settings: hamster
[22] = Inhibition of envelope protein mediated membrane fusion in Dengue virus TSV01 infected in mosquito C6/36 cells assessed as trypsin degradation after 1 hr by SDS-PAGE method; assay type: cell-based; settings: TSV01, C6/36, 1 h
[23] = Inhibition of envelope protein mediated membrane fusion in Dengue virus TSV01 infected in mosquito C6/36 cells after 1 hr by propidium iodide staining based fluorescence assay; assay type: cell-based; settings: TSV01, C6/36, 1 h
[24] = system: dengue virus type 2; experiment: Antiviral activity against Dengue virus 2 NGC infected in BHK21 cells assessed as reduction in viral titer after 3 days by RT-PCR method; assay type: functional, organism-based; settings: BHK-21, 72 h

CC(=O)O[C@H]1[C@H]2c3cc4c(cc3CN3CCC(=C[C@@H]1O)[C@H]23)OCO4
selectivity ratio [1]: > 750 | EC50 [2]: 0.4 µM

CCCCCCCCCCCCCCCC[N+](CC)(CO)CO
IC50 [3]: 22.6 µM

O=C(Nc1nc2cc(O)c(O)cc2s1)c1ccccc1Oc1ccc2cc(O)ccc2c1
IC50 [4]: 4.2 µM | IC50 [5]: 3.2 µM | EC50 [6]: 0.8 µM

Cc1ccc(S(=O)(=O)Nc2cc(SCC(=O)O)c(O)c3ccccc23)cc1[N+](=O)[O-]
EC50 [7]: 0.74 µM | EC50 [8]: 2.43 µM | EC50 [9]: 0.97 µM | EC50 [10]: 0.98 µM | CC50 at 72 h [11]: 67.3 µM

CC[C@H](C)[C@H](NC(=O)[C@H](C)NC(=O)CNC(=O)[C@H](Cc1ccccc1)NC(=O)[C@@H](NC(=O)[C@H](CCC(N)=O)NC(=O)[C@H](Cc1cnc[nH]1)NC(=O)[C@H](CC(C)C)NC(=O)[C@H](C)NC(=O)[C@H](CCCCN)NC(=O)CNC(=O)[C@@H](NC(=O)[C@H](CO)NC(=O)[C@@H](NC(=O)[C@H](Cc1ccccc1)NC(=O)[C@@H](NC(=O)CNC(=O)CNC(=O)[C@H](CC(C)C)NC(=O)[C@H](CO)NC(=O)CNC(=O)[C@H](Cc1ccccc1)NC(=O)[C@H](CC(=O)O)NC(=O)[C@H](Cc1c[nH]c2ccccc12)NC(=O)[C@H](C)NC(=O)[C@@H](NC(=O)[C@H](CC(=O)O)NC(=O)CNC(=O)[C@H](CC(C)C)NC(=O)[C@@H](NC(=O)[C@H](C)NC(=O)[C@@H](N)CCSC)[C@@H](C)CC)[C@@H](C)O)C(C)C)[C@@H](C)O)[C@@H](C)CC)C(C)C)C(=O)N[C@@H](Cc1ccc(O)cc1)C(=O)O (H-MAILGDTAWDFGSLGGVFTSIGKALHQVFGAIY-OH)
Activity [12]: 50% | Activity [13]: 50% | Activity [14]: 50% | Activity [15]: 50%

COc1ccc(-c2csc(NC(=O)c3cc(C(C)(C)C)cc(C(C)(C)C)c3)n2)cc1
EC50 [16]: 1 µM | EC50 [17]: 1 to 4.1 µM | EC50 [18]: 1 to 4.1 µM | EC50 [19]: 1.6 µM | EC50 [20]: 1 to 4.1 µM

O=C(O)c1cc(=O)c2ccc(S[C@@H](/C=C/C=C\CCOc3ccc(Cl)c(Cl)c3)[C@H](O)c3cccc(C(F)(F)F)c3)cc2o1
CC50 at 72 h [21]: 48.7 µM | IC50 [22]: 6.8 µM | IC50 [23]: 6.8 µM | EC50 [24]: 9.8 µM
